Data from ChEMBL document CHEMBL4229347, “Design, synthesis, and biological evaluation of novel ubiquitin-activating enzyme inhibitors” (2018).
Activity calls are given as the source filed them. The rule behind the calls is not given here.

Tests used:
[1] = molecular target: T1, Ubiquitin-like modifier-activating enzyme 1 (Homo sapiens) (UniProt P22314); test: Inhibition of recombinant human E1 expressed in Escherichia coli BL21(DE3) assessed as reduction in biotin-labelled ubiquitin-E1 conjugate formation up to 1000 uM pretreated for 30 mins followed by biotin-labelled ubiquitin addition and measured after 30 mins by Western blot analysis
T1 sequence (whole entry): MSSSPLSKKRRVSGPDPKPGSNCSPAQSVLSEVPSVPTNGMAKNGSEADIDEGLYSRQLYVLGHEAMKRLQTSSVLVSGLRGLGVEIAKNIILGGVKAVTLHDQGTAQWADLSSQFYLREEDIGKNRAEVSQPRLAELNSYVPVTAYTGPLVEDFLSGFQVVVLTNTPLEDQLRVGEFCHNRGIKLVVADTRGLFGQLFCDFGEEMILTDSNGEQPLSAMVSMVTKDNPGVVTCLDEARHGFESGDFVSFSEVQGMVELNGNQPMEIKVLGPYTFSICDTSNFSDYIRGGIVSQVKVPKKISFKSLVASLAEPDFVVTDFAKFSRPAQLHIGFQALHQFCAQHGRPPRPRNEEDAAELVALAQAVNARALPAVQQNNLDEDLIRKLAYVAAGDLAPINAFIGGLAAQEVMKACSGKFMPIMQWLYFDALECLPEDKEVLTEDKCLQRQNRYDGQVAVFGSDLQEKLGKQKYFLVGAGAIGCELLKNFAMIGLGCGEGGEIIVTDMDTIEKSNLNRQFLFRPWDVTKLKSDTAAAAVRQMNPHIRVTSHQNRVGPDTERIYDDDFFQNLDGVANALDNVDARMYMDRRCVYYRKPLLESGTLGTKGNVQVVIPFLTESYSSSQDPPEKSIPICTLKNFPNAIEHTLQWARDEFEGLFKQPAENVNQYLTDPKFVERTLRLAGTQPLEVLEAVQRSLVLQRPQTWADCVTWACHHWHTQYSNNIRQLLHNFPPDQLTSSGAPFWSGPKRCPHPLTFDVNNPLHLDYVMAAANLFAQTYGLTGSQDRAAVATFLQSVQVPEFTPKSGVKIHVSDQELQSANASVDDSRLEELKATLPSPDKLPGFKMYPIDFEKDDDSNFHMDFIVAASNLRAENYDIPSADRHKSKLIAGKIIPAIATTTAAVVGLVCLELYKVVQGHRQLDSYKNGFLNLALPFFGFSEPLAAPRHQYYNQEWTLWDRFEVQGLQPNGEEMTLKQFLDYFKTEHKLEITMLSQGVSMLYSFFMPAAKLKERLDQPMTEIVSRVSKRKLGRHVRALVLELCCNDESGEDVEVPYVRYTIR

[2] = molecular target: Ubiquitin-conjugating enzyme E2 D2 (Homo sapiens) (UniProt P62837); test: Inhibition of E2 (unknown origin) assessed as reduction in biotin-labelled ubiquitin-E2 conjugate formation at 10 to 1000 uM pretreated for 30 mins followed by biotin-labelled ubiquitin addition and measured after 60 mins in presence of E1 by Western blot analysis
[3] = molecular target: T1, Ubiquitin-like modifier-activating enzyme 1 (Homo sapiens); test: Inhibition of E1 in human MCF7 cells assessed as increase in p53 levels at 100 uM measured after 24 hrs by Western blot analysis; format: cell-based
[4] = molecular target: T1, Ubiquitin-like modifier-activating enzyme 1 (Homo sapiens); test: (§1) Reversible inhibition of recombinant human E1 expressed in Escherichia coli BL21(DE3) assessed as reduction in biotin-labelled ubiquitin-E1 conjugate formation at 100 uM pretreated for 60 mins followed by 2.5 uM biotin-labelled ubiquitin addition for 30 mins and subsequent 5 uM biotin-labelled ubiquitin addition measured after 30 mins by Western blot analysis
[5] = molecular target: T1, Ubiquitin-like modifier-activating enzyme 1 (Homo sapiens); test: as §1, with “addition” for “addition measured after 30 mins”
MCF7 = test: Growth inhibition of human MCF7 cells after 72 hrs by alamar blue assay; format: functional; conditions: MCF7, 72 h
[6] = molecular target: Ubiquitin-conjugating enzyme E2 D2 (Homo sapiens) (UniProt P62837); test: Inhibition of E2 (unknown origin) assessed as reduction in biotin-labelled ubiquitin-E2 conjugate formation pretreated for 30 mins followed by biotin-labelled ubiquitin addition and measured after 60 mins in presence of E1 by Western blot analysis
[7] = molecular target: T1, Ubiquitin-like modifier-activating enzyme 1 (Homo sapiens); test: Inhibition of recombinant human E1 expressed in Escherichia coli BL21(DE3) assessed as reduction in biotin-labelled ubiquitin-E1 conjugate formation pretreated for 30 mins followed by biotin-labelled ubiquitin addition and measured after 30 mins by Western blot analysis

Chain of Ubiquitin-conjugating enzyme E2 D2 (Homo sapiens) (P62837 whole entry, looked up): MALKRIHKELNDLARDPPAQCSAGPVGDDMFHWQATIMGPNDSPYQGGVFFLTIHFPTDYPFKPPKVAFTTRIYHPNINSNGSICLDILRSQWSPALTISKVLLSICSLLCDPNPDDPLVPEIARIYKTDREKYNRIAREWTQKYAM

| inhibition [1] | inhibition [2] | inhibition [3] | inhibition [4] | inhibition [5] | GI50 (MCF7) [µM] | inhibition [6] | inhibition [7] | Structure (SMILES) |
| --- | --- | --- | --- | --- | --- | --- | --- | --- |
| Active | inactive | – | – | – | – | – | – | COC(=O)CNC(=O)CCCc1ccc(OCCCNC(C)=O)c(CCCC(C)C)c1 |
| inactive | inactive | – | – | – | – | – | – | COC(=O)CNC(=O)CCCc1ccc(OCCCN)c(CCCC(C)C)c1 |
| – | – | Active | Active | Active | 63.4 | Dose-dependent effect | Dose-dependent effect | COC(=O)CNC(=O)CCCc1ccc(OCCCNC(=O)c2ccccc2)c(CCCC(C)C)c1 |
